Data published in US20240287172A1, “PROTEIN BINDERS TO IRHOM2 EPITOPES” (SCIRHOM GMBH, priority 2019, published 2024).

Key:
[1] = tested on: PMA-induced release of endogenous TGFα from human PC3 prostate cancer cells; test: ELISA-based TGFα release assay, PMA-induced, PC3 cells; format: cell-based; conditions: PC-3, PMA 25 ng/ml, 2 hours, recombinant murine antibodies and IgG at 1 μg/ml, Batimastat at 10 μM
Experimental: In brief, on day 1, Nunc black MaxiSorp® 96-well plates (Thermo Fisher Scientific, USA) were coated overnight with 100 μl per well of goat anti-human TGFα capture antibody (provided as part of the DuoSet ELISA kit) at 0.4 μg/ml TBS at 4° C. On day 2, the capture antibody solution was removed and MaxiSorp® plates were blocked with 300 μl per well of TBS, 1% BSA at room temperature for 3 hours. Meanwhile, 100,000 PC3 (European Collection of Authenticated Cell Cultures, UK) cells in 80 μl of normal growth medium were seeded in each well of F-bottom 96-well cell culture plates (Coming, USA) and pre-incubated with 20 μl per well of OptiMEM medium supplemented with Batimastat (BB94, Abcam, UK) at 50 μM as positive control (for a final concentration of 10 μM in the resulting 100 μl sample volume), mouse IgG antibody (Thermo Fisher Scientific, USA) at 5 μg/ml as isotype control (for a final concentration of 1 μg/ml in the resulting 100 μl sample volume) or antibodies of the invention at 5 μg/ml (for a final concentration of 1 μg/ml in the resulting 100 μl sample volume) at 37° C., 5% CO2 for 30 minutes. In case of stimulation controls, 20 μl of OptiMEM medium without test articles were added. […] Using an infinite M1000 (Tecan Group, Switzerland) microplate reader, the fluorescence of each well was collected at an excitation wavelength of 435 nm and an emission wavelength of 555 nm.

[2] = tested on: PMA-induced release of endogenous HB-EGF from human THP-1 monocytic cells; test: ELISA-based HB-EGF release assay, PMA-induced, THP-1 cells; format: cell-based; conditions: PMA 25 ng/ml, 6 hours, murine (m) and chimeric (ch) antibodies and IgG at 3 μg/ml, Batimastat at 10 μM
Experimental: In brief, on day 1, Nunc black MaxiSorp® 96-well plates (Thermo Fisher Scientific, USA) were coated for 7 hours with 100 μl per well of rat anti-human HB-EGF capture antibody (provided as part of the DuoSet ELISA kit) at 2 μg/ml TBS at room temperature. Capture antibody solution was removed and MaxiSorp® plates were blocked with 300 μl per well of TBS, 1% BSA at room temperature for 3 hours. […]
Following another round of 4 times washing with 350 μl TBS-T (Carl Roth, Germany) per well on a 96-head plate washer (Tecan Group, Switzerland) and careful removal of all buffer traces after the fourth cycle, 100 μl AttoPhos substrate solution (Promega, USA) per well was added for incubation in the dark at room temperature for 1 hour. Using an infinite M1000 (Tecan Group, Switzerland) microplate reader, the fluorescence of each well was collected at an excitation wavelength of 435 nm and an emission wavelength of 555 nm.

Compound: CNC(=O)[C@H](Cc1ccccc1)NC(=O)[C@H](CC(C)C)[C@H](CSc1cccs1)C(=O)NO [Batimastat]
- inhibition at 10 µM [1]: 99.1%
- inhibition at 10 µM [2]: 98.9%
